Our source for the EC50 values is PMC2964380 (Bioorganic & medicinal chemistry, 2010).

For assay [1], the system named is HIV-1 (IIIB). Kind of assay: Inhibition of HIV-1. It counts as cell-based. To be noted: Human immunodeficiency virus 1, IIIB, MT2, 120 h, read-out: Cell-Culture EC50.
Assay [2] concerns HIV-1 (IIIB). As to conditions: MT-2 cell culture, MTT assay; cited from earlier work.

SMILES strings stand for the structures. Like-named read-outs stand apart in the source and are kept apart here.

Consider `COc1ccc(OC)c(CCNC(=S)Nc2ccc(Br)cn2)c1` [HI-236], for which, in the assay on HIV-1 (IIIB) [1], the concentration for a half-maximal effect (EC50) turned out to be 42 nM.

Consider `Cc1cn([C@H]2C=C[C@@H](CO)O2)c(=O)[nH]c1=O` [d4T], for which the half-maximal effective concentration (EC50) with HIV-1 (IIIB) [2] was 2000 nM.

What is called EC50 is the concentration needed to bring the measured effect to its halfway point.
